{"source": "patent US6458580B1", "about": "“Fungal sulphur source and method of using the same” (Commonwealth Scientific and Industrial Research Organisation, priority 1997, dated 2002)", "key": {"[1]": {"tested_on": "rumen fungi", "experiment": "Effect of different intra-ruminal doses on fungal zoospore numbers in the rumen", "type": "in vivo, sheep", "experimental": "Six cross-bred sheep [[…]] having rumen cannula were moved metabolism cages equipped with automatic feeders. They were given eight equal buckets of feed a day (three hourly) and offered water ad-lib. The sheep were offered 1.1 kg of a low sulphur feed (see below). After a period of three weeks on the diet rumen digesta was collected and rumen fluid (150 ml)was taken for zoospore counts. (An extra 100 ml of rumen digest was taken from each animal combined and mixed and 100 ml returned to each rumen to minimise differences between animals.) Zoospores were assessed by standard methods for handling anaerobic fungi. Serial dilutions of rumen fluid were prepared using an anaerobic diluent. Agar roll tubes were inoculated using a syringe with 0.2 ml of either a dilution of rumen fluid or undiluted rumen fluid. The media used was one mimicking the rumen environment but without added rumen fluid and with antibiotics (penicillin and streptomycin) added to stop overgrowth by rumen bacteria. After incubation the number of thallus forming units were counted and the number of zoospores in the rumen fluid calculated. […] The sheep were initially infused at the rate of 0.4 mMoles sulphur per day per 4 liters (ie 0.1 mM in rumen) This was equivalent to 12.67 mg Sulphur/day. The same protocols were used with successively higher doses. […] Each infusion was for one weeks before sampling rumen fluid and infusing the higher dose. […] Wheat straw was milled and approximately 40 kg quantities were transferred from the Gell feed mill to a mixer where 4 l of 40% NaOH was added while mixing. The feed was bagged (approximately two bags per 40 kg) and left for several days before a minerals mix was added. Two bags were placed in the mixer and the compounds in Table 3 were added. Trace elements were made up in 140 ml in water and were added to the urea which was previously dissolved in 25 Liters of water. This solution was then added to two bags of alkali treated feed while mixing. The remaining dry chemicals were mixed and the appropriate amount added (1.638 kg) onto the mixing feed. […]"}, "[2]": {"experiment": "Effect of infusion on feed intake and digestibility", "type": "in vivo, sheep", "details": "for Digested DM, MPA / Digestibility (% DM), MPA / Intake DM, MPA: MPA infused at 192 mg Sulphur/sheep/day; for Digested DM, MPA / Digestibility (% DM), MPA / Intake DM, MPA / Digested DM, % (+) / Digestibility, % (+) / Intake DM, % (+) increase after infusion of MPA: individual sheep and Aver. n = 13; for Digested DM, % (+) / Digestibility, % (+) / Intake DM, % (+) increase after infusion of MPA: versus control period", "experimental": "Feed was prepared as previously described (see example 4). Initially 22 sheep were fed 1 kg of alkali straw/day in the animal house for 4 days to select out sheep not eating the diet. 19 sheep were weighted and transferred to metabolism cages and feed the alkali straw diet ad-lib. Sheep were fed and on the following day the feed refusal weighted and if less then 100 g remained a further 100 g was fed; if 100-200g of feed remained the sheep was given the same amount of feed; if over 200 g of feed was left the sheep was given 100 g less feed. Over the following week another 6 sheep were moved out of the experiment (usually due to very low or erratic intakes). […] After 14 days infusion the collection period of 7 days commenced. Feed refusals were weighted, recorded, and a sample of up to 200 g/day pooled for subsequent analyses. Spilt feed was collected daily, weighted, recorded, and discarded. Faeces were collected with separators that excluded urine. The faeces were weighed and sub-sampled and pooled for subsequent analyses. Pooled faeces and feed were stored at −20° C. and then dried in a hot air oven (faeces were initially dried at 70° C.) at 100° C. cooled and weighted to determine dry weight (DM). Following the last sampling the infusion was stopped in the first group of sheep and on the following day the infusion treatment was begun in the other group of seven sheep. The second period (the crossover) was conducted in the same way as the first period with the same samples being taken at the same times."}, "[3]": {"tested_on": "Total Bacteria", "experiment": "Effect of infusion on total bacteria in rumen fluid", "type": "in vivo", "parameters": "Total Bacteria, MPA: unit not given here", "details": "individual sheep and Aver. n = 13; for Total Bacteria, MPA: MPA infused at 192 mg Sulphur/sheep/day; for Total Bacteria, log (+): versus control period", "experimental": "Feed was prepared as previously described (see example 4). Initially 22 sheep were fed 1 kg of alkali straw/day in the animal house for 4 days to select out sheep not eating the diet. 19 sheep were weighted and transferred to metabolism cages and feed the alkali straw diet ad-lib. Sheep were fed and on the following day the feed refusal weighted and if less then 100 g remained a further 100 g was fed; if 100-200g of feed remained the sheep was given the same amount of feed; if over 200 g of feed was left the sheep was given 100 g less feed. Over the following week another 6 sheep were moved out of the experiment (usually due to very low or erratic intakes). […] After 14 days infusion the collection period of 7 days commenced. At the end of the collection period samples of rumen digesta were taken for microbiology and other analyses. Rumen fluid was collected and fungal zoospores and total bacteria assessed as described in example 4 (the total bacteria were assessed on the same medium but without antibiotics). Cellulolytic bacteria were assessed by a most probable number count. Rumen fluid was serially diluted and subsamples of each dilution inoculated into 5 culture tubes containing an anaerobic medium containing rumen fluid and strips of filter paper. After incubation the presence of cellulolytic bacteria was detected by degradation of the paper and the numbers of positive tubes compared to tables to give a number of these bacteria in the original sample. Following the last sampling the infusion was stopped in the first group of sheep and on the following day the infusion treatment was begun in the other group of seven sheep. The second period (the crossover) was conducted in the same way as the first period with the same samples being taken at the same times."}}, "note": "Several values for one entry are separate records, joined by “and”; a condition that tells them apart may be missing. Equal values may be shown once.", "data": [{"smiles": "O=C(O)CCS", "note": "[MPA, 3-mercaptopropanoic acid]", "values": [{"measurement": "levels of fungi", "setting": "[1]; dose of 0.75 mM (95 mg S/day), four of the six animals", "result": "≈ 1000 /ml"}, {"measurement": "optimum level of MPA", "setting": "[1]; rumen concentration, 190 mg S/day, very low S content diet", "result": 1.5, "unit": "mM"}, {"measurement": "relation between concentration of MPA in the rumen and numbers of zoospores in rumen fluid", "setting": "[1]; sheep on low sulphur diet (0.052% sulphur), 0-5.0 mM in rumen, seven days per dose, FIG. 3", "result": "clear dose response"}, {"measurement": "response in digestive performance to infusion", "setting": "[2]; 192 mg Sulphur/day/sheep, with the exception of one animal", "result": "strong, positive, response"}, {"measurement": "Digested DM, MPA", "setting": "[2]; Table 4", "result": "357.26 g/day and 603.65 g/day and 558.00 g/day and 518.94 g/day and 806.76 g/day and 603.24 g/day and 630.64 g/day and 662.31 g/day and 673.01 g/day and 657.21 g/day and 714.69 g/day and 347.27 g/day and 414.97 g/day"}, {"measurement": "Digestibility (% DM), MPA", "setting": "[2]; Table 4", "result": "50.799 % DM and 51.891 % DM and 45.708 % DM and 52.812 % DM and 58.076 % DM and 53.589 % DM and 46.808 % DM and 51.433 % DM and 53.840 % DM and 51.933 % DM and 48.119 % DM and 54.648 % DM and 51.522 % DM"}, {"measurement": "Intake DM, MPA", "setting": "[2]; Table 4", "result": "703 g/day and 1163 g/day and 1221 g/day and 983 g/day and 1389 g/day and 1126 g/day and 1347 g/day and 1288 g/day and 1250 g/day and 1265 g/day and 1485 g/day and 635 g/day and 805 g/day"}, {"measurement": "Digested DM, MPA", "setting": "[2]; Table 4, mean of 13 sheep", "result": 581, "unit": "g/day"}, {"measurement": "Digestibility (% DM), MPA", "setting": "[2]; Table 4, mean of 13 sheep", "result": 51.6, "unit": "% DM"}, {"measurement": "Intake DM, MPA", "setting": "[2]; Table 4, mean of 13 sheep", "result": 1128, "unit": "g/day"}, {"measurement": "Digested DM, % (+)", "setting": "[2]; Table 4", "result": "38.13% and 51.61% and 32.51% and 37.28% and 41.04% and 36.94% and 24.76% and 17.23% and 46.34% and 40.49% and 9.57% and 38.47% and 63.31%"}, {"measurement": "Digestibility, % (+)", "setting": "[2]; Table 4", "result": "5.019% and 7.795% and 2.610% and 1.453% and 5.112% and 7.462% and 2.544% and 0.444% and 2.855% and 4.777% and 0.002% and 7.459% and 7.799%"}, {"measurement": "Intake DM, % (+) increase after infusion of MPA", "setting": "[2]; Table 4", "result": "24.5% and 28.8% and 24.9% and 33.5% and 28.6% and 17.9% and 18.0% and 16.2% and 38.6% (2×) and 27.5% and 9.6% and 19.6%"}, {"measurement": "Digested DM, % (+)", "setting": "[2]; Table 4, mean of 13 sheep", "result": 36.75, "unit": "%"}, {"measurement": "Digestibility, % (+)", "setting": "[2]; Table 4, mean of 13 sheep", "result": 4.26, "unit": "%"}, {"measurement": "Intake DM, % (+) increase after infusion of MPA", "setting": "[2]; Table 4, mean of 13 sheep", "result": 25.1, "unit": "%"}, {"measurement": "Intake DM, MPA", "setting": "[2]; Table 5", "result": "805 g/day and 703 g/day and 1163 g/day and 1221 g/day and 983 g/day and 1389 g/day and 1126 g/day and 1347 g/day and 1288 g/day and 1250 g/day and 1265 g/day and 1485 g/day and 635 g/day"}, {"measurement": "Intake DM, MPA", "setting": "[2]; Table 5, mean", "result": 1128, "unit": "g/day"}, {"measurement": "Intake DM, % (+) increase after infusion of MPA", "setting": "[2]; Table 5", "result": "38.6% (2×) and 24.5% and 28.8% and 24.9% and 33.5% and 28.6% and 17.9% and 18.0% and 16.2% and 27.5% and 9.6% and 19.6%"}, {"measurement": "Intake DM, % (+) increase after infusion of MPA", "setting": "[2]; Table 5, mean", "result": 25.1, "unit": "%"}, {"measurement": "Total Bacteria, MPA", "setting": "[3]", "result": "10.50 × 10^8 (2×) and 8.07 × 10^8 and 6.83 × 10^8 and 7.50 × 10^8 and 10.00 × 10^8 and 7.17 × 10^8 and 5.87 × 10^8 and 12.00 × 10^8 and 14.50 × 10^8 and 10.83 × 10^8 and 10.67 × 10^8 and 6.33 × 10^8"}, {"measurement": "Total Bacteria, MPA", "setting": "[3]; mean", "result": "9.29 × 10^8"}, {"measurement": "Total Bacteria, log (+)", "setting": "[3]", "result": "0.27 log and 0.31 log (2×) and −0.34 log (2×) and −0.17 log and 0.02 log and 0.05 log and 0.25 log (2×) and 0.29 log and 0.33 log and 0.10 log"}, {"measurement": "Total Bacteria, log (+)", "setting": "[3]; mean", "result": 0.10, "unit": "log"}]}]}
